Source: article PMC4278210, “Sargassopenillines A–G, 6,6-Spiroketals from the Alga-Derived Fungi Penicillium thomii and Penicillium lividum” (Marine Drugs, 2014)

Columns and labels:
[1] = Radical scavenging activity against DPPH
Protocol: The experiments were performed as previously reported.

[2] = system: oncogenic nuclear factor AP-1; test: Basal AP-1-dependent transcriptional activity, luciferase reporter in JB6 Cl41 cells; format: cell-based; conditions: Mus musculus; JB6 Cl41 cells with AP-1 luciferase reporter; after 12 h of treatment; read-out: inhibition of transcriptional activity of AP-1, IC50
Protocol: The effect of compounds 1–3 and 7 on the basal AP-1-dependent transcriptional activity was also studied using JB6 Cl41 cells stably expressing a luciferase reporter gene controlled by an AP-1-DNA binding sequence.
The effects of the compounds on the basal transcriptional activities of AP-1 were evaluated using the JB6 Cl41 cell line stably expressing a luciferase reporter gene controlled by an AP-1-DNA binding sequence. The experiments were performed as previously reported with slight modifications.

[3] = system: CD-1 murine peritoneal macrophages; test: Macrophage adhesion test; format: cell-based; conditions: Mus musculus, 10 µM (non-toxic concentration), 2 h incubation at 37 °C
Protocol: Mice were sacrificed by cervical dislocation. Peritoneal macrophages were isolated using standard procedures. For this purpose, 3 mL of PBS (pH 7.4) was immediately injected into the peritoneal cavity and the body intensively palpated for 1–2 min. Then, the peritoneal fluid was aspirated with a syringe and transferred to Petri dishes. Petri dishes with the fluid were incubated at 37 °C for 1–2 h to facilitate attachment of peritoneal macrophages to the dish. Then, a cell monolayer was triply flushed with PBS (pH 7.4) to delete attendant lymphocytes, fibroblasts and erythrocytes. Subsequently, macrophages were removed from the surface of the dishes with a scraper and flow of a saline solution, and then placed on an ice bath until use. The working concentration of cells was usually 1–2 × 10^6 cells/mL. The number of adhered cells was estimated according to standard method with some modifications.
Twenty […] of test compound solutions (at non-toxic concentration 10 μM) and […] of macrophage suspension were added to 96-well flat-bottom plates. After incubation for 2 h at 37 °C, cells were fixed with 70% ethanol solution ([…] per well) for 15 min at RT. […] Finally, the SDS/trypan blue solution absorbance was detected spectrophotometrically at 590 nm using a plate reader. The percentage of adhered cells compared to the control level of Trypan blue absorbance was calculated. […]

[4] = Cytotoxicity towards CD-1 mouse splenocytes; format: cell-based; conditions: assayed up to 100 µM, read-out: cytotoxicity against splenocytes IC50
Protocol: The effect of the compounds on the cells viability was evaluated using the MTS test, which is based on the reduction of MTS into its formazan product by alive cells. Cytotoxicity towards CD-I mouse splenocytes was determined according to Freshney. Hemolytic activity towards CD-I mouse erythrocytes was determined as previously described.

Row | SMILES | IC50 [1] | inhibition at 10 µM [3] | further results
1 | CC(=O)OC1C2=C(CO[C@@]13O[C@@H](C)C[C@H](O)[C@@H]3OC(C)=O)C(=O)C(C)(OC(C)=O)C(=O)C2 (stereo partly shown) [compound 3, sargassopenilline C] | – | – | IC50 [2]: 15 µM
2 | CC(=O)OC1C2=C(CO[C@@]13O[C@@H](C)CC[C@@H]3OC(C)=O)C(=O)C(C)=C(O)C2=O (stereo partly shown) [compound 4, sargassopenilline D] | – | 30 to 40% | –
3 | CC(=O)O[C@H]1CC[C@H](C)O[C@@]12OCC1=C(C[C@@H](O)[C@@](C)(O)C1=O)C2O (stereo partly shown) [compound 6, sargassopenilline F] | – | 30 to 40% | –

Second part, led by results:

Row | IC50 [1] | SMILES | inhibition at 10 µM [3] | further results
4 | 21.3 µM | O=C1O[C@H]([C@@H](O)CO)C(O)=C1O [Ascorbic acid, reference compound] | – | –
5 | 100 µM | Cc1c(O)cc2c(c1O)CO[C@@]1(O[C@@H](C)CC[C@@H]1O)[C@@H]2O [compound 1, sargassopenilline A] | – | –
6 | 50 µM | C[C@H]1C[C@H](O)C[C@@]2(CC3=C(CO2)C(=O)[C@](C)(O)[C@H](O)C3)O1 [compound 5, sargassopenilline E] | – | IC50 [4]: 38 µM
